Measurements published in patent US9463188B2, “Osteopontin production inhibitor containing dictyopyrone derivative or dihydrodictyopyrone derivative as active ingredient” (TOHOKU UNIVERSITY, priority 2013, dated 2016).

Test system: OPN production by human non-small cell lung cancer-derived cell line A549
Assay: OPN production by A549 cells (Human Osteopontin Immunoassay, per mg protein)
Format: cell-based
Settings: 2-day culture
Protocol: The confirmation test was performed in the following manner. The compound 3 wad added to a culture liquid containing cells of a human non-small cell lung cancer-derived cell line A549 or a human liver cancer-derived cell line HepG2, and the amount of OPN in culture supernatant after 2-day culture was measured using Human Osteopontin Immunoassay kit (R&D systems) and compared with the OPN amount of a compound 3-free group (control group).
The compound 3 has also cell growth inhibitory effect. Therefore, in order to properly evaluate the OPN production-suppressing effect of the compound 3, 1×CCLR used in luciferase assay was added to cells remaining in each well after removal of culture supernatant to prepare a cell lysate, and the amount of protein in the cell lysate was measured using BCA Protein Assay Kit (Thermo Scientific). The influence of addition of the compound 3 on the amount of OPN production was evaluated by comparison of the amount of OPN per milligram of protein.
First, A549 cells or HepG2 cells were suspended in DMEM medium containing 10% FCS and 1% P/S at 4×10^4 cells/mL to obtain a cell suspension, and 500 μL of the cell suspension was dispensed into each well of a 24-well plate. In order to perform the test in triplicate, 3 wells were prepared for a control group and 3 wells were prepared for each test compound-treated group at each concentration. […]

With `CCCCCCCCCCCC(=O)[C@H]1C(=O)O[C@@H](C)C[C@@H]1C` [Chemical formula 3] the “suppression of OPN production vs control group” value (30 μmol/L, significance level less than 5%) was “significantly suppressed” and the “suppression of OPN production vs control group” value (60 μmol/L, significance level less than 1%) was “significantly suppressed”.
